Values after ≈ are worked out from the molar mass of the structure shown. Read-outs that look alike come from different tables or passages of the source.
How the values were obtained:
[1] = test system: P. vulgaris No. 33; assay: agar plate dilution method, MIC against P. vulgaris No. 33; format: cell-based; details: Proteus vulgaris, read-out: Minimum Inhibitory Concentration (MIC)
Method: (§1) The in vitro antibacterial activities of the compounds of the present invention against various microorganisms, were measured by the following agar plate dilution method. One platinum loopfull of each test microorganism incubated overnight in Mueller Hinton broth, was inoculated to Mueller Hinton agar (inoculum size: 10^6 CFU/ml) Such culture media containing various antibiotics in various concentrations were prepared After incubation at 37° C. for 16 hours, the minimum inhibitory concentrations (MIC: μg/ml) were measured. As comparative compounds, cefotaxime, oeftazidime and the compounds disclosed in Example 2 of Japanese Unexamined Patent Publication No. 215690/1985 e.g. sodium 7-[2-(2-aminothiazol-4-yl)-2-ethoxyiminoacetamido]-3-(1-carboxylatemethylpyridinio-4-yl)thiomethyl-3-cephem-4-carboxylate (hereinafter referred to simply as "Reference Example A") were employed.

[2] = test system: E. cloacae Nek 39; assay: agar plate dilution method, MIC against E. cloacae Nek 39; format: cell-based; details: Enterobacter cloacae, NEK39; E. cloacae Nek 39 (lactamase-producing strain); 10^6 CFU/ml, 37° C., 16 hours; read-out: Minimum Inhibitory Concentration (MIC)
Method: as §1

[3] = test system: A. calcoaceticus No. 4; assay: agar plate dilution method, MIC against A. calcoaceticus No. 4; format: cell-based; details: Acinetobacter calcoaceticus; A. calcoaceticus No. 4; 10^6 CFU/ml, 37° C., 16 hours; read-out: Minimum Inhibitory Concentration (MIC)
Method: as §1

[4] = test system: K. pneumoniae No. 42; assay: agar plate dilution method, MIC against K. pneumoniae No. 42; format: cell-based; details: Klebsiella pneumoniae; K. pneumoniae No. 42 (lactamase-producing strain); 10^6 CFU/ml, 37° C., 16 hours; read-out: Minimum Inhibitory Concentration (MIC)
Method: as §1

[5] = test system: Ps. aeruginosa AK 109; assay: agar plate dilution method, MIC against Ps. aeruginosa AK 109; format: cell-based; details: Pseudomonas aeruginosa, read-out: Minimum Inhibitory Concentration (MIC)
Method: as §1

[6] = test system: E. coli GN5482; assay: agar plate dilution method, MIC against E. coli GN5482; format: cell-based; details: Escherichia coli; E. coli GN5482 (lactamase-producing strain); 10^6 CFU/ml, 37° C., 16 hours; read-out: Minimum Inhibitory Concentration (MIC)
Method: as §1

[7] = test system: S. marcescens No. 16-2; assay: agar plate dilution method, MIC against S. marcescens No. 16-2; format: cell-based; details: Serratia marcescens, NO.162, 16 h, read-out: Minimum Inhibitory Concentration (MIC)
Method: as §1

[8] = test system: E. coli NIHJ JC2; assay: agar plate dilution method, MIC against E. coli NIHJ JC2; format: cell-based; details: Escherichia coli, read-out: Minimum Inhibitory Concentration (MIC)
Method: as §1

[9] = test system: K. pneumoniae PCI-602; assay: agar plate dilution method, MIC against K. pneumoniae PCI-602; format: cell-based; details: Klebsiella pneumoniae, read-out: Minimum Inhibitory Concentration (MIC)
Method: as §1

[10] = test system: Ps. aeruginosa IFO3445; assay: agar plate dilution method, MIC against Ps. aeruginosa IFO3445; format: cell-based; details: Pseudomonas aeruginosa, read-out: Minimum Inhibitory Concentration (MIC)
Method: as §1

[11] = test system: S. aureus 209P NIHJ-JC1; assay: agar plate dilution method, MIC against S. aureus 209P NIHJ-JC1; format: cell-based; details: Staphylococcus aureus, read-out: Minimum Inhibitory Concentration (MIC)
Method: as §1

[12] = test system: C. freundii GN346/16; assay: agar plate dilution method, MIC against C. freundii GN346/16; format: cell-based; details: Citrobacter freundii; C. freundii GN346/16; 10^6 CFU/ml, 37° C., 16 hours; read-out: Minimum Inhibitory Concentration (MIC)
Method: as §1

[13] = test system: C. freundii GN346; assay: agar plate dilution method, MIC against C. freundii GN346; format: cell-based; details: Citrobacter freundii; C. freundii GN346 (lactamase-producing strain); 10^6 CFU/ml, 37° C., 16 hours; read-out: Minimum Inhibitory Concentration (MIC)
Method: as §1

[14] = test system: S. epidermidis IAM12012; assay: agar plate dilution method, MIC against S. epidermidis IAM12012; format: cell-based; details: Staphylococcus epidermidis, read-out: Minimum Inhibitory Concentration (MIC)
Method: as §1

[15] = test system: M. morganii GN5407; assay: agar plate dilution method, MIC against M. morganii GN5407; format: cell-based; details: Morganella morganii; M. morganii GN5407 (lactamase-producing strain); 10^6 CFU/ml, 37° C., 16 hours; read-out: Minimum Inhibitory Concentration (MIC)
Method: as §1

[16] = test system: S. aureus JS1; assay: agar plate dilution method, MIC against S. aureus JS1; format: cell-based; details: Staphylococcus aureus; S. aureus JS1 (methicilline resistant; lactamase-producing strain); 10^6 CFU/ml, 37° C., 16 hours; read-out: Minimum Inhibitory Concentration (MIC)
Method: as §1

[17] = test system: Ps. maltophilia GN 12873; assay: agar plate dilution method, MIC against Ps. maltophilia GN 12873; format: cell-based, Pseudomonas maltophilia; details: Stenotrophomonas maltophilia, GN12873; Ps. maltophilia GN 12873 (lactamase-producing strain); 10^6 CFU/ml, 37° C., 16 hours; read-out: Minimum Inhibitory Concentration (MIC)
Method: as §1

[18] = test system: S. aureus BB5703; assay: agar plate dilution method, MIC against S. aureus BB5703; format: cell-based; details: Staphylococcus aureus, read-out: Minimum Inhibitory Concentration (MIC)
Method: as §1

[19] = test system: M. luteus ATCC9341; assay: agar plate dilution method, MIC against M. luteus ATCC9341; format: cell-based; details: Micrococcus luteus, ATCC9341, 16 h, read-out: Minimum Inhibitory Concentration (MIC)
Method: as §1

[20] = test system: S. marcescens IAM 1184; assay: agar plate dilution method, MIC against S. marcescens IAM 1184; format: cell-based; details: Serratia marcescens, IAM1184, 16 h, read-out: Minimum Inhibitory Concentration (MIC)
Method: as §1

[21] = test system: P. vulgaris HX-19; assay: agar plate dilution method, MIC against P. vulgaris HX-19; format: cell-based; details: Proteus vulgaris, HX19, 16 h, read-out: Minimum Inhibitory Concentration (MIC)
Method: as §1

[22] = test system: E. coli CSH2 (RK1); assay: agar plate dilution method, MIC against E. coli CSH2 (RK1); format: cell-based; details: Escherichia coli, 16 h, read-out: Minimum Inhibitory Concentration (MIC)
Method: as §1

[23] = test system: Ps. aeruginosa AKR17; assay: agar plate dilution method, MIC against Ps. aeruginosa AKR17; format: cell-based; details: Pseudomonas aeruginosa; Ps. aeruginosa AKR17; 10^6 CFU/ml, 37° C., 16 hours; read-out: Minimum Inhibitory Concentration (MIC)
Method: as §1

[24] = test system: E. cloacae 963; assay: agar plate dilution method, MIC against E. cloacae 963; format: cell-based; details: read-out: Minimum Inhibitory Concentration (MIC)
Method: as §1

[25] = test system: K. oxytoca GN10650; assay: agar plate dilution method, MIC against K. oxytoca GN10650; format: cell-based; details: Klebsiella oxytoca; K. oxytoca GN10650 (lactamase-producing strain); 10^6 CFU/ml, 37° C., 16 hours; read-out: Minimum Inhibitory Concentration (MIC)
Method: as §1

[26] = test system: Ps. cepacia 23; assay: agar plate dilution method, MIC against Ps. cepacia 23; format: cell-based, Pseudomonas cepacia; details: Burkholderia cepacia, 23, 16 h, read-out: Minimum Inhibitory Concentration (MIC)
Method: as §1

[27] = test system: E. coli CSH(RE45); assay: agar plate dilution method, MIC against E. coli CSH(RE45); format: cell-based; details: Escherichia coli, 16 h, read-out: Minimum Inhibitory Concentration (MIC)
Method: as §1

Structure (SMILES)	MIC [2] [µg/mL]	MIC [3] [µg/mL]	MIC [4] [µg/mL]	MIC [6] [µg/mL]	MIC [7] [µg/mL]	MIC [12] [µg/mL]	MIC [13] [µg/mL]	MIC [15] [µg/mL]	MIC [16] [µg/mL]	MIC [17] [µg/mL]	MIC [19] [µg/mL]	MIC [20] [µg/mL]	MIC [21] [µg/mL]	MIC [22] [µg/mL]	MIC [23] [µg/mL]	MIC [25] [µg/mL]	MIC [26] [µg/mL]	MIC [27] [µg/mL]	other results
C=C(O/N=C(\C(=O)NC1C(=O)N2C(C(=O)[O-])=C(CSc3cc[n+](CC(=O)O)cc3)CSC12)c1csc(N)n1)C(=O)O (stereo not drawn) [Example 1, 7-[2-(2-aminothiazol-4-yl)-2-(1-carboxy-1-vinyloxyimino)acetamido]-3-(1-carboxymethylpyridinio-4-yl)thiomethyl-4-carboxylate (syn-isomer)]	0.78 (≈ 1.26 µM)	50 (≈ 80.6 µM)	0.2 (≈ 0.322 µM)	0.2 (≈ 0.322 µM)	1.56 (≈ 2.51 µM)	0.1 (≈ 0.161 µM)	25 (≈ 40.3 µM)	0.0125 (≈ 0.0201 µM)	50 (≈ 80.6 µM)	> 100	1.56 (≈ 2.51 µM)	< 0.006	< 0.006	0.05 (≈ 0.0806 µM)	> 100	0.2 (≈ 0.322 µM)	1.56 (≈ 2.51 µM)	0.1 (≈ 0.161 µM)	MIC ([1]; NO.33, 16 h): 0.0125 µg/mL (≈ 0.0201 µM); MIC ([5]; AK109, 16 h): 3.12 µg/mL (≈ 5.03 µM); MIC ([8]; NIHJJC2, E. coli NIHJ JC2, 10^6 CFU/ml, 37° C., 16 hours): 0.1 µg/mL (≈ 0.161 µM); MIC ([9]; PCI602, 16 h): < 0.006 µg/mL; MIC ([10]; IFO3445, 16 h): 1.56 µg/mL (≈ 2.51 µM); MIC ([11]; 16 h): 3.12 µg/mL (≈ 5.03 µM); MIC ([14]; IAM12012, 16 h): 1.56 µg/mL (≈ 2.51 µM); MIC ([18]; S. aureus BB5703, 10^6 CFU/ml, 37° C., 16 hours): 25 µg/mL (≈ 40.3 µM); MIC ([24]; Enterobacter cloacae, E. cloacae 963, 10^6 CFU/ml, 37° C., 16 hours): 0.1 µg/mL (≈ 0.161 µM)
Nc1nc(/C(=N/OCc2ccccc2)C(=O)NC2C(=O)N3C(C(=O)[O-])=C(CSc4cc[n+](CC(=O)O)cc4)CSC23)cs1 (stereo not drawn) [Example 2, monosodium 7-[2-(2-aminithiazol-4-yl)-2-benzyloxyiminoacetamide]-3-(1-caboxylatemethylpyridinio-4-yl)thiomethyl-3-cephem-4-carboxylate (syn-isomer)]	6.25	25	1.56	0.78	12.5	0.78	25	1.56	50	> 100	0.025	1.56	< 0.006	0.2	> 100	12.5	12.5	0.2	MIC ([1]; P. vulgaris No. 33 (lactamase-producing strain), 10^6 CFU/ml, 37° C., 16 hours): 1.56 µg/mL; MIC ([5]; AK109, Ps. aeruginosa AK 109, 10^6 CFU/ml, 37° C., 16 hours): 25 µg/mL; MIC ([8]; NIHJJC2, 16 h): 1.56 µg/mL; MIC ([9]; PCI602, K. pneumoniae PCI-602, 10^6 CFU/ml, 37° C., 16 hours): 0.0125 µg/mL; MIC ([10]; Ps. aeruginosa IFO3445, 10^6 CFU/ml, 37° C., 16 hours): 25 µg/mL; MIC ([11]; S. aureus 209P NIHJ-JC1, 10^6 CFU/ml, Mueller Hinton agar, 37° C., 16 hours): 0.39 µg/mL; MIC ([14]; S. epidermidis IAM12012, 10^6 CFU/ml, 37° C., 16 hours): 0.2 µg/mL; MIC ([18]; BB5703, 16 h): 1.56 µg/mL; MIC ([24]; Enterobacter cloacae, 963, 16 h): 1.56 µg/mL
